Test results: patent US5571819A, “Imidazopyridines as muscarinic agents” (priority 1994, dated 1996)
Like-named read-outs stand apart in the source and are kept apart here.

Tests used:
[1] = target: T1, ml receptors (muscarinic receptor subtypes) (Homo sapiens, UniProt P11229); assay: biochemical; format: binding
T1 sequence (P11229 1-460): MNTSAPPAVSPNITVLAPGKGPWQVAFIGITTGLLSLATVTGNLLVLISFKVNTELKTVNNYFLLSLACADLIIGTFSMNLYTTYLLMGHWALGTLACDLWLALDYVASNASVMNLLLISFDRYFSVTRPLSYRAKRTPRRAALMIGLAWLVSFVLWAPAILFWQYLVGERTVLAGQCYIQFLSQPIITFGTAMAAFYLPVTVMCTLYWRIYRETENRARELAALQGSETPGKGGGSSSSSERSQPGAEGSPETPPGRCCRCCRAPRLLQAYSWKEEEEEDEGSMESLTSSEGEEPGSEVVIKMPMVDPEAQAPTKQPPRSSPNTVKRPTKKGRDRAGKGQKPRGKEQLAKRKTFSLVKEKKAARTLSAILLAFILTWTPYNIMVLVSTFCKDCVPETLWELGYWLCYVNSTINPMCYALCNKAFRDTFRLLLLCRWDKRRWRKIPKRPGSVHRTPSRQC

[2] = target: T2, M1 acetylcholine receptors (Homo sapiens, UniProt P11229); assay: Stimulation of phosphoinositide (PI) hydrolysis in CHO cells expressing M1 acetylcholine receptors; format: cell-based; details: 1 h, read-out: % PI Hydrolysis ml receptors in CHO cells maximum %, carbachol = 100%
T2 sequence (P11229 1-460): T1 sequence (P11229 1-460)

[3] = tested on: patients with mild to moderate Alzheimer's Disease; details: cited from earlier work; for improvement in memory in patients: mild to moderate Alzheimer's Disease
[4] = in vivo; cited from earlier work
[5] = read-out: ml 3H QNB Binding in CHO cells Ki, [3H]QNB 0.23 nM, 37 °C, 1 hour, CHO cells, ml
[6] = ml 3H QNB Binding in CHO cells Ki (μM), [3H]QNB 0.23 nM, 37 °C, 1 hour, CHO cells, ml

Compound	Ki [1, 6] [µM]	also measured
Cn1cnc2c(O[C@@H]3CN4CC[C@@H]3C4)nccc21 (relative stereo) [Example 4, (exo)-4-(1-Aza-bicyclo[2,2,1]hept-3-yloxy)-1-methyl-1H-imidazo[4,5-c]pyridine]	–	Ki [1, 5]: 20.6 µM
c1ccc(Cn2cnc3c(OC4CN5CCC4CC5)nccc32)cc1 (stereo not drawn) [Example 5, 3-(1-Benzyl-1H-imidazo[4,5-c]pyridin-4-yloxy)-1-aza-bicyclo[2.2.2]octane]	3.85	–
Cn1cnc2c(O[C@@H]3CN4CC[C@@H]3C4)ncnc21 (relative stereo) [Example 10, exo-6-(1Aza-bicyclo[2,2.1]hept-3-yloxy)-9-methylpurine]	17.1	–
c1ccc(Cn2cnc3c(OC4CN5CCC4CC5)nccc32)cc1 (single isomer, unassigned; (+)) [Example 6, (+)-3-(1-Benzyl-1H-imidazo[4,5-c]pyridin-4-yloxy)-1-aza-bicyclo[2.2.2]octane]	13.4	–
Cn1c(C2(O)CN3CCC2CC3)nc2ncccc21 (stereo not drawn) [Example 13, 3-(1-Methyl-1H-imidazo[4,5-b]pyridin-2-yl)-1-aza-bicyclo[2.2.2]octan-3-ol]	–	Ki [1, 5]: 1.42 µM
Cn1cnc2c(O[C@H]3CN4CC[C@@H]3C4)nccc21 (single isomer, unassigned) [Example 3, (-)-endo-4-(1-Aza-bicyclo[2.2.1]hept-3-yloxy)-1-methyl-1H-imidazo[4,5-c]pyridine]	14.2	Emax [2]: 26.2%
Nc1c2c(nc3ccccc13)CCCC2 [tacrine]	–	adverse side effects ([3]; especially at the higher doses): adverse side effects especially at the higher doses where it is most effective; improvement in memory in patients [3]: improvement in memory can be shown in patients with mild to moderate Alzheimer's Disease
Cn1cnc2c(O[C@H]3CN4CC[C@@H]3C4)nccc21 (relative stereo) [Example 1, endo-4-(1-Aza-bicyclo[2.2.1]hept-3-yloxy)-1-methyl-1H-imidazo[4,5-c]pyridine]	19.3	Emax [2]: 21.7%
OC1(c2nc3c(Cl)nccc3n2Cc2ccccc2)CN2CCC1CC2 (stereo not drawn) [Example 14, 3-(1-Benzyl-4-chloro-1H-imidazo[4,5-c]pyridin-2-yl)-1-azabicyclo[2.2.2]octan-3-ol]	1.65	–
Cn1cnc2c(OCC3CN4CCC3CC4)nccc21 (stereo not drawn) [Example 8, 3-(1-Methyl-1H-imidazo[4,5,c]pyridin-4-yloxymethyl)-1-aza-bicyclo[2.2.2]octane]	2.65	–
COC(=O)C1=CCCN(C)C1 [arecoline]	–	half-life [4]: short half-life; improvement in memory in patients [3]: memory improvement in patients with mild to moderate Alzheimer's Disease
Cn1cnc2c(O[C@H]3CN4CC[C@@H]3C4)ncnc21 (relative stereo) [Example 9, endo-6-(1Aza-bicyclo[2.2,1]hept-3-yloxy)-9-methylpurine]	27	–
CCN1CCCC(O)(c2nc3c(Cl)nccc3n2Cc2ccccc2)C1 (stereo not drawn) [Example 15, 3-(1-Benzyl-4-chloro-1H-imidazo[4,5-c]pyridin-2-yl)-1-ethyl-piperidin-3-ol]	–	Ki ([1]; read-out: ml 3H QNB Binding in CHO cells Ki): 9.3 µM
c1ccc(Cn2cnc3c(OC4CN5CCC4CC5)nccc32)cc1 (single isomer, unassigned) [Example 7, (--)-3-(1-Benzyl-1H-imidazo[4,5-c]pyridin-4-yloxy)-1-aza-bicyclo[2.2.2]octane]	17.6	–
